# Measurements published in ChEMBL document CHEMBL1132083, “Switching androgen receptor antagonists to agonists by modifying C-ring substituents on piperidino[3,2-g]quinolinone” (Bioorg Med Chem Lett, 1999).
# What was measured:
# Androgen receptor [1] = target: T1, Androgen receptor (Homo sapiens, UniProt P10275)
# T1 sequence (P10275 whole entry): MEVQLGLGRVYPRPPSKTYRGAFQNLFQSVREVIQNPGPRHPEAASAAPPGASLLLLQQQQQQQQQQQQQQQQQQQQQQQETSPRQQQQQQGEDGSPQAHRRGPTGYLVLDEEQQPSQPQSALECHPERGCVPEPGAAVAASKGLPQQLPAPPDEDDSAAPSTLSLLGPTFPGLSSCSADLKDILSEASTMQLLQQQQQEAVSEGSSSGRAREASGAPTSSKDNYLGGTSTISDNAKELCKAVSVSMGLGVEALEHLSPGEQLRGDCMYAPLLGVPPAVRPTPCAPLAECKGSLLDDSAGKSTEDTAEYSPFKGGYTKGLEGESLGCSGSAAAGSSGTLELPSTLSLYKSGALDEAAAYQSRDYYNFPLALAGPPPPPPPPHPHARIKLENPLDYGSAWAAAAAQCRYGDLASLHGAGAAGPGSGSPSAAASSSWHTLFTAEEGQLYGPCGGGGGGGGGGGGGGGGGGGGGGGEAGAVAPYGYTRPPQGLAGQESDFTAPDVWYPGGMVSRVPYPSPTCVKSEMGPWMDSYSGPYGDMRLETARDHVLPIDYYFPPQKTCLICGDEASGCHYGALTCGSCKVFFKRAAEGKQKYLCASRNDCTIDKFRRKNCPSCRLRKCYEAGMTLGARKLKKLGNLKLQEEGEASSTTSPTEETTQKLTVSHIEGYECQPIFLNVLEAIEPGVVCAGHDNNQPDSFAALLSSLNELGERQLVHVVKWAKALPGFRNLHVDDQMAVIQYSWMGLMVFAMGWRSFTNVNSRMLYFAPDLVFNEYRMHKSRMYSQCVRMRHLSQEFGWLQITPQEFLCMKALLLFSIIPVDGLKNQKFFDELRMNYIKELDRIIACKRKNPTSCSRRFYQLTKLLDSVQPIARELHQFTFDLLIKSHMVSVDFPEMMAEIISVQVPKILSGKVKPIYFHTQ
# Description: (§1) Antagonistic activity against human androgen receptor (hAR) expressed in CV-1 cell lines
# Androgen receptor [2] = target: T1, Androgen receptor; remark: listed apart in the source
# Description: Binding affinity towards human androgen receptor (hAR), using dihydrotestosterone as radioligand for competitive binding assay
# Androgen receptor [3] = target: T1, Androgen receptor; settings: cv-1
# Description: (§2) Agonistic activity against human androgen receptor (hAR) expressed in CV-1 cell lines
# Androgen receptor [4] = target: T1, Androgen receptor; test: Antagonistic activity against human androgen receptor (hAR) expressed in CV-1 cells; no data; assay type: functional, cell-based
# [5] = target: T2, Androgen receptor (Homo sapiens) (UniProt P10275); test: Antagonistic activity against human androgen receptor (hAR); no data; assay type: functional
# T2 sequence (whole entry): T1 sequence (P10275 whole entry)
# Androgen receptor [6] = target: T1, Androgen receptor; remark: listed apart in the source
# Description: as §2
# Androgen receptor [7] = target: T1, Androgen receptor; settings: cv-1; remark: listed apart in the source
# Description: as §1
SMILES,IC50 (Androgen receptor [1]) [µM],Ki (Androgen receptor [2]) [µM],EC50 (Androgen receptor [3]) [µM],IC50 (Androgen receptor [4]) [µM],Efficacy [5] [%],EC50 (Androgen receptor [6]) [µM],IC50 (Androgen receptor [7]) [µM]
CC(C)(O)C(=O)Nc1ccc([N+](=O)[O-])c(C(F)(F)F)c1O,0.015,0.027,< 10,,,,
CC[C@H]1C[C@@H](C)Nc2cc3nc(O)cc(C(F)(F)F)c3cc21,,0.023,,< 10,< 20,0.066,
CC[C@H]1Nc2cc3[nH]c(=O)cc(C(F)(F)F)c3cc2C[C@@H]1C,0.011,0.012,,,,1.67,
CC[C@@H]1C[C@H](C)c2cc3c(C(F)(F)F)cc(O)nc3cc2N1,0.137,0.021,,,,0.119,
C[C@H]1Nc2cc3nc(O)cc(C(F)(F)F)c3cc2CC1(C)C,0.024,0.082,< 10,,,,
CC[C@@H]1C[C@H](CC)c2cc3c(C(F)(F)F)cc(O)nc3cc2N1,,0.009,,< 10,< 20,0.032,
CC[C@H]1Nc2cc3nc(O)cc(C(F)(F)F)c3cc2C[C@H]1C,0.015,0.011,,,,2.47,
CCC[C@@H]1CCc2cc3c(C(F)(F)F)cc(O)nc3cc2N1,0.032,0.024,< 10,,,,
C[C@@H]1CCc2cc3c(C(F)(F)F)cc(=O)[nH]c3cc2N1,0.019,0.007,,,,0.021,
CC[C@H]1Cc2cc3c(C(F)(F)F)cc(O)nc3cc2N[C@@H]1C,,0.011,,,,0.009,< 10
C[C@H]1Cc2cc3c(C(F)(F)F)cc(O)nc3cc2N[C@@H]1C,0.033,0.022,< 10,,,,
CC[C@@H]1Cc2cc3c(C(F)(F)F)cc(=O)[nH]c3cc2N[C@@H]1C,,0.015,,,,0.01,< 10
CC(C)[C@@H]1CCc2cc3c(C(F)(F)F)cc(=O)[nH]c3cc2N1,0.025,0.109,< 10,,,,
C[C@@H]1Cc2cc3c(C(F)(F)F)cc(O)nc3cc2N[C@@H]1C,0.074,0.015,,,,0.034,
CC[C@@H]1CCc2cc3c(C(F)(F)F)cc(O)nc3cc2N1,0.011,,< 10,,,,
CC[C@H]1Cc2cc3c(C(F)(F)F)cc(=O)[nH]c3cc2N[C@@H]1CC,,0.016,,,,0.003,< 10
CC[C@H]1Nc2cc3nc(O)cc(C(F)(F)F)c3cc2CC1(CC)CC,0.048,0.042,< 10,,,,
C[C@@H]1C[C@H](C)c2cc3c(C(F)(F)F)cc(O)nc3cc2N1,0.015,0.006,,,,0.059,
CC[C@@H]1Cc2cc3c(C(F)(F)F)cc(=O)[nH]c3cc2N[C@@H]1CC,,0.029,,,,0.02,< 10
CC[C@H]1Nc2cc3[nH]c(=O)cc(C(F)(F)F)c3cc2CC1(C)C,0.042,0.05,< 10,,,,
